Laboratory results as given in paper PMC4958397, “Synthesis, antibacterial and antiproliferative potential of some new 1-pyridinecarbonyl-4-substituted thiosemicarbazide derivatives” (Medicinal Chemistry Research, 2016).
Converted amounts (≈) assume the structure as drawn.

Key:
[1] = system: Streptococcus mutans PCM 2502; experiment: Broth microdilution MIC; type: cell-based; settings: for MIC: Streptococcus mutans, PCM2502, NA means inactive, read-out: Minimum inhibitory concentration (MIC), S. mutans
From the text: (§1) Panel reference strains of bacteria from the American Type Culture Collection or Polish Collection of Microorganisms, including aerobic Gram-positive bacteria: Staphylococcus aureus ATCC 25923 and Staphylococcus epidermidis ATCC 12228, and aerobic Gram-negative bacteria: Escherichia coli ATCC 25922 and Pseudomonas aeruginosa ATCC 9027, as well as microaerobic Gram-positive bacteria: Lactobacillus spp., Lactobacillus acidophilus PCM 2105, Streptococcus mutans PCM 2502 and Streptococcus sanguinis PCM 2335, were used. Microbial suspensions with an optical density of 0.5 McFarland standard at 1.5 × 10^8 CFU/mL (CFU: colony forming unit) were prepared in sterile 0.9 % NaCl. Mueller–Hinton (M–H) broth and M–H agar (Oxoid Ltd., England) for aerobic strains, and MRS Broth Lactobacillus, MRS Agar Lactobacillus (BioMaxima S.A., Poland), BHI Broth and BHI agar (BioMaxima S.A., Poland) for microaerobic strains were used in the microbial tests.
(§2) A broth microdilution method was used to evaluate the minimum inhibition concentration (MIC) according to the CLSI document (CLSI performance standards for antimicrobial susceptibility testing, 2008, Eighteenth International Supplement, CLSI document M7-MIC, Clinical Laboratory Standards Institute, Wayne) with some modifications. […] A serial doubling dilution of the compounds was prepared in 96-well plates (200 μL per well). A suitable medium (M-H Broth, MRS Broth Lactobacillus, BHI Broth) was used as a diluent. The final concentrations of derivatives were 1000–0.015 μg/mL. Finally, 2 μL of inoculum of the tested bacterial strain (1.5 × 10^8 CFU/mL) was added to each well. The tests were performed either at 36 °C for 18 h (aerobic strains) or at 40 h (microaerobic strains). After incubation, the panel was digitally analyzed at 600 nm using the microplate reader Bio Tech Synergy (USA) with a dedicated software system. The growth intensity in each well was compared with the negative and positive controls.

[2] = system: Staphylococcus epidermidis ATCC 12228; experiment: Broth microdilution MIC; type: cell-based; settings: for MIC: Staphylococcus epidermidis, ATCC12228, NA means inactive, read-out: Minimum inhibitory concentration (MIC), S. epidermidis
From the text: as §1, §2

[3] = system: Staphylococcus aureus ATCC 25923; experiment: Broth microdilution MIC; type: cell-based; settings: for MIC: Staphylococcus aureus, ATCC25923, NA means inactive, read-out: Minimum inhibitory concentration (MIC), S. aureus
From the text: as §1, §2

[4] = system: Pseudomonas aeruginosa ATCC 9027; experiment: Broth microdilution MIC; type: cell-based; settings: for MIC: Pseudomonas aeruginosa, ATCC9027, NA means inactive, read-out: Minimum inhibitory concentration (MIC), P. aeruginosa
From the text: as §1, §2

[5] = system: Streptococcus sanguinis PCM 2335; experiment: Broth microdilution MIC; type: cell-based; settings: for MIC: Streptococcus sanguinis, PCM2335, NA means inactive, read-out: Minimum inhibitory concentration (MIC), S. sanguinis
From the text: as §1, §2

[6] = system: Escherichia coli ATCC 25922; experiment: Broth microdilution MIC; type: cell-based; settings: NA means inactive; for Minimum inhibitory concentration (MIC), E. coli: broth microdilution; for MIC: Escherichia coli, ATCC25922, broth microdilution, read-out: Minimum inhibitory concentration (MIC), E. coli
From the text: as §1, §2

tested bacterial strains = experiment: Disk diffusion, summary over all tested strains; type: cell-based; settings: 100 μg; range over strains
From the text: as §1, with “Mueller–Hinton (M–H) broth and M–H agar (Oxoid Ltd., England) for aerobic strains, and MRS Broth Lactobacillus, MRS Agar Lactobacillus (BioMaxima S.A., Poland), BHI Broth and BHI agar (BioMaxima S.A., Poland) for microaerobic strains were used in the microbial tests.” left out
The preliminary antibacterial activity of the carbazide derivatives against human pathogenic Gram-positive, Gram-negative aerobic and microaerobic bacteria was evaluated by measuring the zones of inhibition in the disk diffusion method (Murray et al., [1995]). […] After 18 h of incubation at 37 °C (for aerobic strains) or 40 h at 35 °C (for microaerobic strains), zones of microbial growth produced around the tested substances were measured and recorded as the diameters of inhibition.

[7] = system: Streptococcus mutans PCM 2502; experiment: Disk diffusion, zone of bacterial growth inhibition; type: cell-based; settings: for zone of inhibition at 100 µg/disc: Streptococcus mutans, PCM2502, 100 μg of compound, read-out: Zone of bacterial growth inhibition, S.m
From the text: as §1
(§3) The preliminary antibacterial activity of the carbazide derivatives against human pathogenic Gram-positive, Gram-negative aerobic and microaerobic bacteria was evaluated by measuring the zones of inhibition in the disk diffusion method (Murray et al., [1995]). Each compound (100 µg) was placed on Petri plates with agar medium (previously inoculated with 0.5 McFarland standards with the tested bacterial strains). After 18 h of incubation at 37 °C (for aerobic strains) or 40 h at 35 °C (for microaerobic strains), zones of microbial growth produced around the tested substances were measured and recorded as the diameters of inhibition.

[8] = system: Staphylococcus epidermidis ATCC 12228; experiment: as above; type: cell-based; settings: for zone of inhibition at 100 µg/disc: Staphylococcus epidermidis, ATCC12228, 100 μg of compound, read-out: Zone of bacterial growth inhibition, S.e
From the text: as §1, §3

Lactobacillus spp. = experiment: as above; type: cell-based; settings: 100 μg of compound; for zone of inhibition at 100 µg/disc: Lactobacillus, read-out: Zone of bacterial growth inhibition, L.spp.
From the text: as §1, §3

[9] = system: Staphylococcus aureus ATCC 25923; experiment: as above; type: cell-based; settings: for zone of inhibition at 100 µg/disc: Staphylococcus aureus, ATCC25923, 100 μg of compound, read-out: Zone of bacterial growth inhibition, S.a
From the text: as §1, §3

[10] = system: Pseudomonas aeruginosa ATCC 9027; experiment: as above; type: cell-based; settings: for zone of inhibition at 100 µg/disc: Pseudomonas aeruginosa, ATCC9027, 100 μg of compound, read-out: Zone of bacterial growth inhibition, P.a
From the text: as §1, §3

[11] = system: Lactobacillus acidophilus PCM 210; experiment: as above; type: cell-based; settings: for zone of inhibition at 100 µg/disc: Lactobacillus acidophilus, PCM210, 100 μg of compound, read-out: Zone of bacterial growth inhibition, L.a
From the text: as §1, §3

[12] = system: Streptococcus sanguinis PCM 2335; experiment: as above; type: cell-based; settings: for zone of inhibition at 100 µg/disc: Streptococcus sanguinis, PCM2335, 100 μg of compound, read-out: Zone of bacterial growth inhibition, S.s
From the text: as §1, §3

[13] = system: Escherichia coli ATCC 25922; experiment: as above; type: cell-based; settings: for zone of inhibition at 100 µg/disc: Escherichia coli, ATCC25922, 100 μg of compound, read-out: Zone of bacterial growth inhibition, E.c
From the text: as §1, §3

[14] = system: Lactobacillus acidophilus PCM 210; experiment: Broth microdilution MIC; type: cell-based; settings: for MIC: Lactobacillus acidophilus, PCM210, NA means inactive, read-out: Minimum inhibitory concentration (MIC), L. acidophilus
[15] = system: aerobic Gram-positive bacteria; experiment: Broth microdilution MIC, summary in text; type: cell-based; settings: range over compounds and strains; read-out: MIC against aerobic Gram-positive bacteria
From the text: as §1, §2

[16] = system: pathogenic microaerobic bacteria (causing dental caries); experiment: Broth microdilution MIC, summary in text; type: cell-based; settings: range over compounds and strains; read-out: MIC against pathogenic microaerobic bacteria
From the text: as §1, §2

SMILES | MIC [1] [µg/mL] | MIC [2] [µg/mL] | MIC [3] [µg/mL] | MIC [4] [µg/mL] | MIC [5] [µg/mL] | melting point [°C] | MIC [15] [µg/mL] | zone of inhibition at 100 µg/disc [7] [mm] | zone of inhibition at 100 µg/disc [8] [mm] | zone of inhibition at 100 µg/disc (Lactobacillus spp.) [mm] | zone of inhibition at 100 µg/disc [9] [mm] | zone of inhibition at 100 µg/disc [10] [mm] | zone of inhibition at 100 µg/disc [11] [mm] | zone of inhibition at 100 µg/disc [12] [mm] | zone of inhibition at 100 µg/disc [13] [mm] | MIC [14] [µg/mL] | further results
CO/N=C(\C(=O)N[C@@H]1C(=O)N2C(C(=O)O)=C(C[N+]3(C)CCCC3)CS[C@H]12)c1csc(N)n1.Cl.[Cl-] [Cefepime, cefepime dihydrochloride, reference compound] | – | – | – | – | – | – | – | – | – | – | – | – | – | – | – | – | Minimum inhibitory concentration (MIC), S. mutans ([1]; NA means inactive): 0.122 µg/mL; Minimum inhibitory concentration (MIC), S. epidermidis ([2]; NA means inactive): 0.976 µg/mL; Minimum inhibitory concentration (MIC), S. aureus ([3]; NA means inactive): 0.976 µg/mL; Minimum inhibitory concentration (MIC), P. aeruginosa ([4]; NA means inactive): 0.488 µg/mL; Minimum inhibitory concentration (MIC), S. sanguinis ([5]; NA means inactive): 0.122 µg/mL; Minimum inhibitory concentration (MIC), E. coli [6]: 0.015 µg/mL; zones of inhibition, all tested strains (tested bacterial strains): 29–38 mm; Zone of bacterial growth inhibition, S.m ([7]; 100 μg of compound): 32 mm; Zone of bacterial growth inhibition, S.e ([8]; 100 μg of compound): 36 mm; Zone of bacterial growth inhibition, L.spp. (Lactobacillus spp.): 29 mm; Zone of bacterial growth inhibition, S.a ([9]; 100 μg of compound): 38 mm; Zone of bacterial growth inhibition, P.a ([10]; 100 μg of compound): 29 mm; Zone of bacterial growth inhibition, L.a ([11]; 100 μg of compound): 31 mm; Zone of bacterial growth inhibition, S.s ([12]; 100 μg of compound): 29 mm; Zone of bacterial growth inhibition, E.c ([13]; 100 μg of compound): 35 mm; Minimum inhibitory concentration (MIC), L. acidophilus ([14]; NA means inactive): 3.9 µg/mL
O=C(NNC(=S)Nc1ccccc1F)c1ccccn1 [Compound 1, 4-(2-Fluorophenyl)-1-(pyridin-2-yl)carbonylthiosemicarbazide] | 250 | 15.6 | 31.2 | 500 | 500 | 182 to 184 | 15.6 to 500 | 10 | 26 | 24 | 18 | 12 | 12 | 10 | 22 | 125 (≈ 431 µM) | MIC [6]: 62 to 125 µg/mL; Minimum inhibitory concentration (MIC), E. coli [6]: 62.5 µg/mL; MIC [16]: 7.81 to 500 µg/mL
O=C(NNC(=S)NCCN1CCOCC1)c1ccccn1 [Compound 3, 4-(2-Morpholinoethyl)-1-(pyridin-2-yl)carbonylthiosemicarbazide] | – | – | – | – | – | 196 to 198 | – | 0 | 7 | 0 | 0 | 0 | 0 | 0 | 0 | – | –
CSc1ccc(NC(=S)NNC(=O)c2ccccn2)cc1 [Compound 5, 4-(4-Methylthiophenyl)-1-(pyridin-2-yl)carbonylthiosemicarbazide] | 31.2 | 125 | 250 | > 1000 | 31.2 | 184 to 186 | 15.6 to 500 | 0 | 10 | 11 | 10 | 0 | 19 | 15 | 11 | 500 (≈ 1570 µM) | MIC [16]: 7.81 to 500 µg/mL
CSc1ccc(NC(=S)NNC(=O)c2ccncc2)cc1 [Compound 8, 4-(4-Methylthiophenyl)-1-(pyridin-4-yl)carbonylthiosemicarbazide] | – | – | – | – | – | 197 to 198 | – | 0 | 0 | 0 | 0 | 0 | 0 | 0 | 0 | – | –
O=C(NNC(=S)Nc1ccccc1F)c1ccncc1 [Compound 9, 4-(2-Fluorophenyl)-1-(pyridin-4-yl)carbonylthiosemicarbazide] | – | – | – | – | – | 202 to 204 | – | 0 | 0 | 0 | 0 | 0 | 0 | 0 | 0 | – | –
O=C(NNC(=S)Nc1ccc(Cl)cc1Cl)c1ccncc1 [Compound 10, 4-(2,4-Dichlorophenyl)-1-(pyridin-4-yl)carbonylthiosemicarbazide] | 250 | 250 | 125 | 1000 | 1000 | – | 15.6 to 500 | 28 | 13 | 0 | 16 | 0 | 0 | 20 | 7 | 1000 (≈ 2930 µM) | MIC [6]: 1000 µg/mL
